In data set [1] the test system is Stage III-V gametocytes (blood stage P. falciparum parasites). The experiment in a line: In vitro drug activity on gametocytes (AlamarBlue viability assay). The note with it: read-out: Gametocyte EC50. The data set is classed as cell-based, Plasmodium falciparum. In a few lines: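 P. falciparum 3D7 stage III–V gametocytes (also HB3, Dd2), enriched by 50 mM N-acetylglucosamine and Percoll gradient, seeded at 20,000/well with compound for 72 h at 37° C, 5% CO2. AlamarBlue then added for 24 h; viability read as fluorescence (Ex 525, Em 598 nm).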

In data set [2] the test system is Asexual parasites of P. falciparum strain 3D7. The experiment in a line: In vitro drug activity on asexual parasites (SYBR Green assay). The data set is classed as cell-based, Plasmodium falciparum. In a few lines:
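3D7 parasites at 0.5% parasitemia and 2% hematocrit were exposed to drugs (DMSO ≤0.5%) for 72 h under standard culture conditions, in duplicate. After freeze-thaw lysis, SYBR Green I lysis buffer was added for 30 min at room temperature, and fluorescence was read at 490/520 nm.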

Data set [3] is described as follows: Microsomal stability (rat). It is filed as in vitro ADME. The note with it: rat microsomes.
A further data set is described as follows: Solubility at pH 7.4. The data set is classed as physicochemical.
The next data set in a line: PAMPA permeability. It is filed as in vitro ADME. Background: PAMPA measures passive passage across an artificial lipid membrane.
Setting [4] is: P. falciparum stage III-V gametocytes, 72 h incubation, AlamarBlue.
The mark [5] stands for this setting: P. falciparum 3D7 asexual parasites, 72 h, SYBR Green.

Molecules are shown by their SMILES. Read-outs that look alike come from different tables or passages of the source.

The source of these data is patent US11753408B2, “Compounds and method for blocking transmission of malarial parasite” (The United States of America, as represented by the …, priority 2016, dated 2023).

One may read the EC50 as the concentration that produces a half-maximal response.

On to `CCN(CC)Cc1ccc(-c2ccc3ncc4ccc(=O)n(-c5cc(C#N)ccc5C)c4c3c2)cc1` [Compound 9], for which the EC50 in data set [1] (setting [4]) turned out to be 2570 nM; in data set [2] (setting [5]), 668 nM. Further, the “Microsomal Stability (rat) T1/2” value in data set [3] is on record as 10.9 min. Moreover, the “Sol @ pH 7.4 (ug/mL)” value in “Solubility at pH 7.4” came out at 58.6 ug/mL. For the same molecule, in the data set “PAMPA permeability”, the “PAMPA Permeability (×10^6 cm/s)” value is given as 1492.3 ×10^6 cm/s.
As to `O=C(c1ccc(-n2c(=O)ccc3cnc4ccc(-c5ccc(Cl)cc5)cc4c32)cc1)N1CCOCC1` [Compound 85], the figures for the EC50 in data set [1] and in data set [2] were 77.6 nM and 6.89 nM, respectively. The “Microsomal Stability (rat) T1/2” value in data set [3] came to 9 min. In “Solubility at pH 7.4”, the “Sol @ pH 7.4” value is listed as below 1.0 ug/mL. This molecule registered a PAMPA Permeability in the data set “PAMPA permeability” of 794 ×10⁻⁶ cm/s.
Consider `Cc1cc(-c2ccc3ncc4ccc(=O)n(-c5ccc(S(C)(=O)=O)cc5)c4c3c2)ccc1Cl` [Compound 48], for which the figures for the EC50 in data set [1] (setting [4]) and in data set [2] (setting [5]) were 561 nM and 200 nM, respectively. Moreover, the “Microsomal Stability (rat) T1/2” value in data set [3] is above 30.0 min. Besides, the “Sol @ pH 7.4 (ug/mL)” value in the data set “Solubility at pH 7.4” was below 1.0 ug/mL. Further, the “PAMPA Permeability (×10^6 cm/s)” value in “PAMPA permeability” is given as <1.0 ×10^6 cm/s.
The like results for `N#Cc1cc(-n2c(=O)ccc3cnc4ccc(-c5ccc(N)nc5)cc4c32)ccc1N1CCOCC1` [Compound 23] were, in that order, 40.4 nM, 22.5 nM, 3.5 min, 1.48 ug/mL and 58.15 ×10^6 cm/s.
In the same order, the values of `C[S+]([O-])c1ccc(-n2c(=O)ccc3cnc4ccc(-c5ccc(Cl)cc5)cc4c32)cc1` (stereo not shown) [Compound 59] are 25.4 nM, 9.07 nM, 12.8 min, below 0.10 ug/mL and <1.00 ×10^6 cm/s.
Regarding `Nc1ccc(-c2ccc3ncc4ccc(=O)n(-c5ccc6c(c5)CN(C5CC5)C6=O)c4c3c2)cn1` [Compound 390], the EC50 in data set [1] (setting [4]) turned out to be 116 nM; in data set [2] (setting [5]) it was 75.2 nM. In addition, the “Microsomal Stability (rat) T1/2” value in data set [3] is reported as above 30.0 min. Also, the “Sol @ pH 7.4 (ug/mL)” value in the data set “Solubility at pH 7.4” is 4.2 ug/mL. The “PAMPA Permeability (×10^6 cm/s)” value in “PAMPA permeability” is listed as 25 ×10^6 cm/s.
Turning to `CN(C)CCc1ccc(-c2ccc3ncc4ccc(=O)n(-c5ccc6c(c5)CNC6=O)c4c3c2)cc1` [Compound 375], the results for the EC50 in data set [1] (setting [4]) and in data set [2] (setting [5]) were 715 nM and 389 nM, respectively. Besides, the “Microsomal Stability (rat) T1/2” value in data set [3] is given as above 30 min. The “Sol @ pH 7.4 (ug/mL)” value in the data set “Solubility at pH 7.4” amounted to 13.1 ug/mL. The “PAMPA Permeability (×10^6 cm/s)” value in “PAMPA permeability” is on record as <1.1 ×10^6 cm/s.
The like results for `CN(C)C(=O)c1cc(-c2ccc3ncc4ccc(=O)n(-c5ccc(S(C)(=O)=O)cc5)c4c3c2)ccc1Cl` [Compound 50] were, in that order, 1830 nM, 932 nM, 3 min, 2.7 ug/mL and 164.4 ×10^6 cm/s.
In the same order, the values of `CS(=O)(=O)c1ccc(-n2c(=O)ccc3cnc4ccc(-c5ccc(Cl)c(C#N)c5)cc4c32)cc1` [Compound 32] are 92.8 nM, 85.5 nM, above 30.0 min, below 1.0 ug/mL and 39.6 ×10^6 cm/s.
In the same order, the values of `O=C1NCc2cc(-n3c(=O)ccc4cnc5ccc(-c6ccc(CN7CCOCC7)cc6)cc5c43)ccc21` [Compound 369] are 2940 nM, 1230 nM, 26 min, 15.7 ug/mL and 55 ×10^6 cm/s.
Regarding `CCNC(=O)c1cc(-c2ccc3ncc4ccc(=O)n(-c5ccc(S(C)(=O)=O)cc5)c4c3c2)ccc1Cl` [Compound 53], the EC50 in data set [1] (setting [4]) was found to be 6850 nM; in data set [2] (setting [5]), 3790 nM. Further, in data set [3], the “Microsomal Stability (rat) T1/2” value was 2.8 min. Also, in the data set “Solubility at pH 7.4”, the “Sol @ pH 7.4 (ug/mL)” value amounted to 9.6 ug/mL. For the same molecule, in “PAMPA permeability”, the “PAMPA Permeability (×10^6 cm/s)” value was 115.9 ×10^6 cm/s.
In the same order, the values of `CS(=O)(=O)c1ccc(-n2c(=O)ccc3cnc4ccc(-c5cccc(CN)c5)cc4c32)cc1` [Compound 64] are 1050 nM, 489 nM, above 30 min, 1.4 ug/mL and <12.3 ×10^6 cm/s.
Take `O=C1NCc2cc(-n3c(=O)ccc4cnc5ccc(-c6ccc(F)cc6)cc5c43)ccc21` [Compound 362]: the values for the EC50 in data set [1] (setting [4]) and in data set [2] (setting [5]) were 81.7 nM and 8.86 nM, respectively. Besides, the “Microsomal Stability (rat) T1/2” value in data set [3] came out at 7.4 min. Further, the “Sol @ pH 7.4 (ug/mL)” value in “Solubility at pH 7.4” was 0.6 ug/mL. Moreover, the “PAMPA Permeability (×10^6 cm/s)” value in the data set “PAMPA permeability” is given as 98.56 ×10^6 cm/s.
Regarding `Cc1ccc(C#N)cc1-n1c(=O)ccc2cnc3ccc(-c4ccc(N)nc4)cc3c21` [Compound 21], the EC50 in data set [1] (setting [4]) is 17 nM; in data set [2] (setting [5]), 13.8 nM. In data set [3], the “Microsomal Stability (rat) T1/2” value is listed as 12.7 min. For the same molecule, the “Sol @ pH 7.4 (ug/mL)” value in the data set “Solubility at pH 7.4” is recorded as 1.1 ug/mL. Besides, the “PAMPA Permeability (×10^6 cm/s)” value in the data set “PAMPA permeability” is given as 606 ×10^6 cm/s.
The like results for `O=C1NCc2cc(-n3c(=O)ccc4cnc5ccc(-c6ccc(CN7CCCC7)cc6)cc5c43)ccc21` [Compound 371] were, in that order, 2470 nM, 472 nM, above 30 min, 45.3 ug/mL and 1.2 ×10^6 cm/s.
Take `CN(C)Cc1cccc(-c2ccc3ncc4ccc(=O)n(-c5ccc(S(C)(=O)=O)cc5)c4c3c2)c1` [Compound 60]: in data set [1] (setting [4]), the EC50 worked out at 1950 nM. The “Microsomal Stability (rat) T1/2” value in data set [3] is reported as above 30.00 min. Besides, in “Solubility at pH 7.4”, the “Sol @ pH 7.4 (ug/mL)” value worked out at 21.28 ug/mL. Also, the “PAMPA Permeability (×10^6 cm/s)” value in “PAMPA permeability” is given as 1646.44 ×10^6 cm/s.
For `CN(C)Cc1ccc(-c2ccc3ncc4ccc(=O)n(-c5ccc6c(c5)CNC6=O)c4c3c2)cc1` [Compound 340], the EC50 in data set [1] (setting [4]) was determined as 616 nM; in data set [2] (setting [5]) it was 266 nM. Moreover, the “Microsomal Stability (rat) T1/2” value in data set [3] is given as above 30.0 min. The “Sol @ pH 7.4 (ug/mL)” value in the data set “Solubility at pH 7.4” is recorded as above 68.0 ug/mL. In addition, in the data set “PAMPA permeability”, the “PAMPA Permeability (×10^6 cm/s)” value is 5.2 ×10^6 cm/s.
In the same order, the values of `N#Cc1cccc(-n2c(=O)ccc3cnc4ccc(-c5ccc(N)nc5)cc4c32)c1` [Compound 20] are 22.6 nM, 11.7 nM, above 30.0 min, below 1.0 ug/mL and 505.6 ×10^6 cm/s.
In the same order, the values of `CN(C)Cc1ccc(-c2ccc3ncc4ccc(=O)n(-c5ccc6c(c5)CN(C5CC5)C6=O)c4c3c2)cc1` [Compound 354] are 1910 nM, 687 nM, above 30.0 min, above 74.0 ug/mL and 292.3 ×10^6 cm/s.
In the same order, the values of `CN(C)Cc1ccc(-c2ccc3ncc4ccc(=O)n(-c5ccc(S(C)(=O)=O)cc5)c4c3c2)cc1` [Compound 30] are 336 nM, 118 nM, above 30.0 min, 30.4 ug/mL and 677.9 ×10^6 cm/s.
As to `O=C1NCc2cc(-n3c(=O)ccc4cnc5ccc(-c6ccc(CN7CCC7)cc6)cc5c43)ccc21` [Compound 378], in data set [1] (setting [4]), the EC50 was 1550 nM. In addition, the “Microsomal Stability (rat) T1/2” value in data set [3] is on record as above 30 min. For the same molecule, in “Solubility at pH 7.4”, the “Sol @ pH 7.4 (ug/mL)” value is above 70 ug/mL. Moreover, in “PAMPA permeability”, the “PAMPA Permeability (×10^6 cm/s)” value is recorded as 2.3 ×10^6 cm/s.
Take `CS(=O)(=O)c1ccc(-n2c(=O)ccc3cnc4ccc(-c5ccc(Cl)cc5)cc4c32)cc1N1CCOCC1` [Compound 58]: in data set [1] (setting [4]), the EC50 is 890 nM. In data set [3], the “Microsomal Stability (rat) T1/2” value is 13.5 min. Further, the “Sol @ pH 7.4 (ug/mL)” value in “Solubility at pH 7.4” was below 0.10 ug/mL. Besides, in “PAMPA permeability”, the “PAMPA Permeability (×10^6 cm/s)” value was 1527.98 ×10^6 cm/s.
In the same order, the values of `CS(=O)(=O)c1ccc(-n2c(=O)ccc3cnc4ccc(-c5ccc(Cl)cc5)cc4c32)cc1CN1CCOCC1` [Compound 66] are 350 nM, 1.4 min, below 1 ug/mL and 135 ×10^6 cm/s.
As to `CS(=O)(=O)c1ccc(-n2c(=O)ccc3cnc4ccc(-c5ccc(N)nc5)cc4c32)cc1N1CCOCC1` [Compound 83], the EC50 in data set [1] (setting [4]) amounted to 74.7 nM. In addition, the “Microsomal Stability (rat) T1/2” value in data set [3] was above 30.00 min. For the same molecule, in the data set “Solubility at pH 7.4”, the “Sol @ pH 7.4 (ug/mL)” value is given as 5.62 ug/mL. For the same molecule, in “PAMPA permeability”, the “PAMPA Permeability (×10^6 cm/s)” value was 58.31 ×10^6 cm/s.
The like results for `Nc1ccc(-c2ccc3ncc4ccc(=O)n(-c5ccc6c(c5)C(=O)NC6=O)c4c3c2)cn1` [Compound 395] were, in that order, 46000 nM, above 30 min, 11.3 ug/mL and 3.9 ×10^6 cm/s.
In the same order, the values of `CS(=O)(=O)c1cccc(-n2c(=O)ccc3cnc4ccc(-c5ccc(Cl)cc5)cc4c32)c1` [Compound 56] are 1550 nM, above 30.00 min, 0.01 ug/mL and 716.98 ×10^6 cm/s.
The like results for `O=C1NCc2cc(-n3c(=O)ccc4cnc5ccc(-c6ccc(Cl)cc6)cc5c43)ccc21` [Compound 339] were, in that order, 9.19 nM, above 30.0 min, below 1.0 ug/mL and <1.0 ×10^6 cm/s.
